Data on one compound can be found in patent publication US20230277508A1, “USE OF COMPOUND AS CYP2E1 INHIBITOR” (SHANGHAI LING XI BIOTECHNOLOGY DEVELOPMENT CO., LTD., priority 2020, published 2023).

Experiment [1] relates to HepG2 liver cancer cells. The experiment can be described thus: Direct effect on HepG2 liver cancer cells. Format: cell-based. The conditions noted are these: up to 100 μmol/L, 24 h. As for the experimental part:
Experimental method: HepG2 liver cancer cells and H22 liver cancer cells in a logarithmic growth phase each were selected and inoculated into a 96-well plate at a concentration of 1*10^5 cells/mL, and then 100 μL of a basic medium including SMI0 at different concentrations (0 μmol/L, 0.16 μmol/L, 0.8 μmol/L, 4 μmol/L, 20 μmol/L, and 100 μmol/L) was added to each well; and 24 h later, the proliferation activity of HepG2 was determined by a CCK8 method, a migration ability of HepG2 was determined by wound-healing assay, and an apoptosis ability of HepG2 was determined by flow cytometry (FCM).

Experiment [2] has as its system glioma cell line GL261 brain in situ transplanted tumor. The experiment can be described thus: Mouse glioma model, in situ implantation of GL261 cells into the brain. Format: in vivo, C57/BL6 mouse. The protocol:
Experimental method: A female C57/BL6 mouse glioma model was constructed through in situ implantation of a glioma cell line GL261, with a cell concentration of 1*10^6. Experimental groups: sham-operated group (n=9); model group (n=10); temozolomide group (50 mg/kg, ig, n=11); SMI0 low-dose group (3.3 mg/kg, ig, n=13); SMI0 medium-dose group (10 mg/kg, ig, n=13); and SMI0 high-dose group (30 mg/kg, ig, n=13). The SMI0 intervention group was intragastrically administered with the compound SMI0 every day starting from three days before modeling, and the positive drug group was administered on day 3 to day 7 and day 10 to day 14 after surgery. The modeling took about 21 days. At the end of the experiment, blood was collected from the orbit, a body weight was measured, then the mice each were sacrificed, and brain tissues were collected. Brain tissue specimens were subjected to HE staining, and then the brain tissue lesion and tumorigenesis of mice in each group were observed.

Experiment [3] deals with U251 cells / M2 microglial cells. Kind of experiment: U251 cells co-cultivated with M2 microglial cells. As to conditions: SMI0 50 μmol/L vs M2 microglial cell co-cultivation group, P<0.001. The format is cell-based, human. As for the experimental part:
Experimental method: 10 1-2 d newborn C57BL/6 WT mice and 6 CYP2E1^−/− mice were taken, primary microglial cells and astrocytes were collected and inoculated into 6-well plates, and 24 h later, culture supernatants were taken and co-cultivated with glioma cells. Experimental groups: control group; M2 model group; high-concentration, medium-concentration, and low-concentration SMI0 (50 μmol/L, 12.5 μmol/L, and 3.1 μmol/L) groups; and CYP2E1 gene-knockout group. 24 h later, supernatants were discarded; and […] and IL-13 each were added at 20 ng/mL to induce the transformation of microglial cells into the M2 type in the M2 model group and the high-concentration, medium-concentration, and low-concentration SMI0 groups, and different concentrations of SMI0 (50 μmol/L, 12.5 μmol/L, and 3.1 μmol/L) were also added in the intervention groups. The proliferation of glioma cells was determined by a CCK8 method, and an apoptosis proportion was determined by an Annexin V-FITC-PI apoptosis staining kit.

In experiment [4] the test system is ID-8 cells. The experiment can be described thus: In vitro inhibition experiment on ID-8 cells. The conditions noted are these: 0 μM to 320 μM, 48 h. Format: cell-based, murine.
For experiment [5], the system named is CFA-induced rheumatoid arthritis in rats. The experiment can be described thus: CFA-induced rat rheumatoid arthritis model. The conditions noted are these: for rat foot swelling alleviation rate: at 36 h. Format: in vivo, SD rat. As for the experimental part:
Experimental method: An SD rat rheumatoid arthritis model was constructed with CFA (0.1 mL/rat). The SMI0 intervention group was divided into an ultra-low-dose group, a low-dose group, a medium-dose group, and a high-dose group, which were intragastrically administered with the compound SMI0 respectively at 1 mg/kg, 6 mg/kg, 30 mg/kg, and 150 mg/kg every day starting from two days before modeling; and the positive control group was intragastrically administered with celecoxib at 5 mg/kg. 10 animals were provided for each group. 1 d before administration of CFA to the rats, the above grouping and doses were adopted, and then the rats were administered once every day until the modeling was completed on day 10. Each rat was administered with CFA at a sole of a right hindfoot. A volume of each of the right hindfeet of rats was measured every day by a rat foot swelling measuring instrument (which was measured every 12 h in the first 3 days). A foot swelling rate of each rat was calculated according to a change of a right hindfoot volume of the rat relative to a hindfoot volume of the rat before the CFA administration at each time point, and a difference in foot swelling rate between groups of rats was analyzed.

The test system of experiment [6] is LPS-induced sepsis in rats. Kind of experiment: LPS-induced rat sepsis model. Format: in vivo, SD rat. The conditions noted are these: SMI0 150 mg/kg ig or celecoxib 5 mg/kg ig 30 min before LPS 5 mg/kg ip; 4 h, 5 h, 6 h; vs model group. As for the experimental part:
Rats: An SD rat sepsis model was constructed through single intraperitoneal injection of LPS (5 mg/kg). 30 min before LPS administration, rats in the model group were administered with NS (0.5 mL/kg, i.g.), rats in the positive control group were administered with celecoxib (5 mg/kg, i.g.), and rats in the CYP2E1 inhibition group were administered with the compound SMI0 (150 mg/kg, i.g.). After LPS administration, a body temperature of each rat was measured and recorded every hour until 9 h (control group, n=8 rats; model group, n=10 rats; celecoxib group, n=10 rats; and SMI0 compound group, n=10 rats).

`CC(=O)c1scnc1C` [SMI0]: in experiment [1], the “effect on the proliferation, migration, and apoptosis of HepG2 liver cancer cells” value is “no significant inhibitory effect”. In experiment [2] (SMI0 intervention (3.3, 10, 30 mg/kg ig daily), about 21 days, vs model group), the “glioma growth in mice” value was “significantly inhibited”. The “tumor proliferation inhibition rate” value in experiment [2] (as high as, SMI0 high-dose group 30 mg/kg ig) turned out to be 97.6%. For the same compound, the “proliferation of U251 cells” value in experiment [3] was “significantly inhibited”. In experiment [4], the “inhibitory effect on ID-8” value is listed as “no significant inhibitory effect”. Besides, the “rat foot swelling alleviation rate” value came to 20.8% in experiment [5] (SMI0 1 mg/kg ig daily), 34.2% in experiment [5] (SMI0 6 mg/kg ig daily), 44.1% in experiment [5] (SMI0 30 mg/kg ig daily) and 52.5% in experiment [5] (SMI0 150 mg/kg ig daily). Further, the “rat foot swelling caused by CFA” value in experiment [5] (SMI0 intervention group vs model group, P<0.001) is “significantly alleviated”. Also, the “increase in body temperature in the LPS-induced sepsis rat model” value in experiment [6] is on record as “avoided”.
